# According to PubChem BioAssay (NCI):
# Where “and” joins values, the source holds several entries; their conditions need not be identical. Equal values may be shown once.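 Five compound concentrations were applied to cells in 96-well plates for 48 hours; endpoints were derived by simple linear interpolation of the resulting dose-response curve. Here, GI50 denotes the concentration required for 50% inhibition of growth. At the TGI there is no net growth.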
# Experiments:
# Assay in all cases: NCI tumour cell line growth inhibition, 48 h
# MOLT-4 leukemia = tested on: MOLT-4 leukemia
# SNB-19 CNS = tested on: SNB-19 CNS
# HOP-92 NSCLC = tested on: HOP-92 NSCLC
# MDA-MB-231 breast = tested on: MDA-MB-231 breast
# TK-10 renal = tested on: TK-10 renal
# HL-60(TB) leukemia = tested on: HL-60(TB) leukemia
# OVCAR-5 ovarian = tested on: OVCAR-5 ovarian
# KM12 colon = tested on: KM12 colon
# A549 NSCLC = tested on: A549 NSCLC
# COLO 205 colon = tested on: COLO 205 colon
SMILES,GI50 (MOLT-4 leukemia),TGI (MOLT-4 leukemia),GI50 (SNB-19 CNS),TGI (SNB-19 CNS),GI50 (HOP-92 NSCLC),TGI (HOP-92 NSCLC),GI50 (MDA-MB-231 breast),TGI (MDA-MB-231 breast) [µM],GI50 (TK-10 renal),TGI (TK-10 renal),GI50 (HL-60(TB) leukemia),TGI (HL-60(TB) leukemia) [µM],GI50 (OVCAR-5 ovarian),TGI (OVCAR-5 ovarian) [µM],GI50 (KM12 colon),TGI (KM12 colon),GI50 (A549 NSCLC),TGI (A549 NSCLC),GI50 (COLO 205 colon),TGI (COLO 205 colon)
O=C1NC(=N[C@@H](CO)c2ccccc2)S/C1=C\c1ccc2ncccc2c1,9.19 µM,> 25 µM,24.2 µM,> 25 µM,11.1 µM,> 25 µM,> 23.1 µM,> 25,4.92 µM,> 25 µM,6.07 µM,19.4,> 25 µM,> 25,10.8 µM,> 25 µM,9.83 µM,> 25 µM,5.5 µM,15.9 µM
COc1ccc(C(=O)c2cc(OC)c(OC)c(OC)c2OC)cc1O,4.56 µM,> 100 µM,4.49 µM,> 100 µM,4.73 µM,> 100 µM,5.82 µM,> 100,52.8 µM,> 100 µM,2.77 µM,9.82,17.5 µM,> 100,2.91 µM,> 100 µM,5.4 µM,> 100 µM,8.27 µM,34.3 µM
Nc1ncc(Cc2ccc3c(c2)OCO3)c(N)n1,,> 100 µM,,> 100 µM,,> 100 µM,,> 100,,> 100 µM,,> 100,,> 100,,> 100 µM,,> 100 µM,,> 100 µM
CCn1cc(C(=O)O)c(=O)c2cc(F)c(N3CCN(S(=O)(=O)c4cccc5ccccc45)CC3)cc21,4.46 µM,> 100 µM,3.47 µM,> 100 µM,1.25 µM,5.43 µM,1.91 µM,4.71,7.6 µM,> 100 µM,2.58 µM,6.41,3.38 µM,> 100,2.96 µM,9.2 µM,2.87 µM,> 100 µM,2.02 µM,3.91 µM
Nc1nc2c(c3cnccc13)C(c1ccc(Cl)c(Cl)c1)Cc1cnccc1-2 (centres undefined),0.48 µM,5.48 µM,0.65 µM,13.5 µM,1.88 µM,14.5 µM,0.937 µM,14.8,1.18 µM,9.48 µM,0.384 µM,2.34,2.52 µM,17,0.48 µM,12.6 µM,0.665 µM,4.84 µM,0.356 µM,1.09 µM
COC1N(C2CC(O)C(CO)O2)C(=O)NC(=O)C1(F)Br (centres undefined),13.3 µM,15.8 µM and > 100 µM,26.6 µM,50 µM and > 100 µM,13.2 µM,43.8 µM and > 100 µM,,> 100,> 50 µM,> 100 µM,13.8 µM,> 67,> 50 µM,> 100,30.4 µM,50 µM and > 100 µM,3.22 µM,50 µM and > 100 µM,42.6 µM,50 µM and > 100 µM
CCN(C)c1nc(N(C)CC)c2nc(N(C)CC)nc(N(C)CC)c2n1,,> 100 µM,,> 100 µM,,> 100 µM,,> 100,,> 100 µM,,> 100,,> 100,,> 100 µM,,> 100 µM,,> 100 µM
COCC([C@@H](O)C(O)C(=O)NCC[C@@H](C)c1nc(/C=C/CC2OC3(C[C@H](O)C2C)OC(C(C[C@H](O)C(C)[C@H](O)C(C)/C=C(C)/C(C)=C/C=C/C(C)=C/C#N)OC)[C@@H](OP(=O)(O)O)C3(C)C)co1)N(C)C (some centres undefined),,0.00248 µM,,0.000343 µM,,0.000316 µM,,0.000562,,0.00024 µM,,0.00207,,0.000345,,0.000331 µM,,0.00147 µM,,0.000309 µM
N#CC1c2ccccc2C=CN1C(=O)CCCl (centres undefined),7.88 µM,51.2 µM,20.1 µM,52.9 µM,1.53 µM,3.76 µM,8.78 µM,23.8,2.16 µM,6.02 µM,9.09 µM,40.8,10.3 µM,25.9,16.9 µM,42.6 µM,20.1 µM,37.3 µM,2.48 µM,5.65 µM
Cc1nn(-c2ccc(Cl)cc2)c2ncnc(N/N=C/c3ccccc3O)c12,0.518 µM and 0.326 µM,> 100 µM,1.08 µM and 0.604 µM,> 80.4 µM,1.11 µM and 0.714 µM,34.6 µM and 16.3 µM,0.694 µM and 0.375 µM,> 65.3,2.33 µM and 1.86 µM,63.4 µM and > 100 µM,0.335 µM and 0.305 µM,40.7,4.16 µM and 2.34 µM,> 100,0.53 µM and 0.385 µM,> 100 µM,1.77 µM and 0.699 µM,17.2 µM and 16 µM,0.776 µM and 0.398 µM,> 46.2 µM and 27.6 µM
CC(=O)ON1CCCC(P(=O)(OCOC(=O)C(C)(C)C)OCOC(=O)C(C)(C)C)C1=O (centres undefined),0.511 µM,3.65 µM,0.583 µM,4.74 µM,0.187 µM,1.82 µM,0.446 µM,5.04,0.977 µM,6.89 µM,0.653 µM,2.87,1.94 µM,20.3,0.51 µM,2.54 µM,0.514 µM,18.7 µM,0.925 µM,5.71 µM
CC1(C)N=C(N)N=C(N)N1c1ccc(CCC(=O)Nc2ccc(S(=O)(=O)F)cc2)cc1,4.62 µM,> 100 µM,7.16 µM,> 100 µM,5.31 µM,> 100 µM,23.1 µM,> 100,1.72 µM,> 100 µM,0.854 µM,> 100,0.599 µM,> 100,0.64 µM,> 100 µM,2.87 µM,> 100 µM,0.922 µM,> 100 µM
